Reference: paper PMC7924852, “The Emericellipsins A–E from an Alkalophilic Fungus Emericellopsis alkalina Show Potent Activity against Multidrug-Resistant Pathogenic Fungi” (Journal of Fungi, 2021)
≈ marks a conversion by molar mass, not a printed value. Read-outs that look alike come from different tables or passages of the source.

How the values were obtained:
[1] = system: Aspergillus niger ATCC 16404; experiment: Disc-diffusion antifungal assay; assay type: cell-based; settings: Aspergillus niger, ATCC16404, A. niger ATCC 16404
A. niger 1133 m [2] = experiment: Disc-diffusion antifungal assay; assay type: cell-based, Aspergillus niger; settings: Aspergillus niger, pathogenic clinical isolate
A. fumigatus VKM F-37 [3] = experiment: Disc-diffusion antifungal assay; assay type: cell-based, Aspergillus fumigatus; settings: Aspergillus fumigatus, VKMF37
A. fumigatus 390 m [4] = experiment: Disc-diffusion antifungal assay; assay type: cell-based, Aspergillus fumigatus; settings: Aspergillus fumigatus, pathogenic clinical isolate
A. terreus 3 K [5] = experiment: Disc-diffusion antifungal assay; assay type: cell-based; settings: Aspergillus terreus
A. terreus 497 [6] = experiment: Disc-diffusion antifungal assay; assay type: cell-based; settings: Aspergillus terreus, A. terreus 497, pathogenic clinical isolate
[7] = system: clinical isolates of Candida; experiment: Disc-diffusion antifungal assay, clinical yeast isolates; assay type: cell-based; settings: range over clinical isolates of Candida (Figure S2)
[8] = system: reference and clinical strains of Aspergillus; experiment: Disc-diffusion antifungal assay, Aspergillus strains; assay type: cell-based; settings: range over clinical isolates of Aspergillus (Figure S2)
A. niger ATCC 16404 = experiment: Broth two-fold microdilution MIC (CLSI); assay type: cell-based, Aspergillus niger; settings: Aspergillus niger, ATCC16404, 48 h, pH 7, read-out: Minimal Inhibitory Concentration (MIC)
A. niger 1133 m [9] = experiment: Broth two-fold microdilution MIC (CLSI); assay type: cell-based, Aspergillus niger; settings: Aspergillus niger, 1133M, 48 h, pH 7, read-out: Minimal Inhibitory Concentration (MIC)
A. terreus 3 K [10] = experiment: Broth two-fold microdilution MIC (CLSI); assay type: cell-based; settings: Aspergillus terreus, 3K, 48 h, pH 7, read-out: Minimal Inhibitory Concentration (MIC)
A. terreus 497 [11] = experiment: Broth two-fold microdilution MIC (CLSI); assay type: cell-based; settings: Aspergillus terreus, 497, 48 h, pH 7, read-out: Minimal Inhibitory Concentration (MIC)
A. fumigatus VKM F-37 [12] = experiment: Broth two-fold microdilution MIC (CLSI); assay type: cell-based, Aspergillus fumigatus; settings: Aspergillus fumigatus, VKMF37, 48 h, pH 7, read-out: Minimal Inhibitory Concentration (MIC)
A. fumigatus 390 m [13] = experiment: Broth two-fold microdilution MIC (CLSI); assay type: cell-based, Aspergillus fumigatus; settings: Aspergillus fumigatus, 390M, 48 h, pH 7, read-out: Minimal Inhibitory Concentration (MIC)
Candida albicans 1402 [14] = experiment: Broth microdilution MIC and MFC (CLSI); assay type: cell-based; settings: for MIC: Candida albicans 1402 clinical isolate, RPMI 1640 pH 7.0, 35 °C, 24 h, read-out: MIC
C. glabrata 1402 [15] = experiment: Broth microdilution MIC and MFC (CLSI); assay type: cell-based; settings: for MIC: Nakaseomyces glabratus, 1402, 24 h, pH 7
C. krusei 1447 [16] = experiment: Broth microdilution MIC and MFC (CLSI); assay type: cell-based
C. tropicalis 156 [17] = experiment: Broth microdilution MIC and MFC (CLSI); assay type: cell-based
C. parapsilosis 571 [18] = experiment: Broth microdilution MIC and MFC (CLSI); assay type: cell-based; settings: for MIC: Lodderomyces parapsilosis, 571, 24 h, pH 7
[19] = system: Cryptococcus neoformans 297; experiment: Broth microdilution MIC and MFC (CLSI); assay type: cell-based
C. laurentii 325m = experiment: Broth microdilution MIC and MFC (CLSI); assay type: cell-based, Cr. laurentii; settings: Papiliotrema laurentii; for MIC: 24 h
Aspergillus niger 1133m = experiment: Sensititre YeastOne antifungal susceptibility test; assay type: cell-based; settings: Aspergillus niger, 1133M
A. fumigatus 390m = experiment: Sensititre YeastOne antifungal susceptibility test; assay type: cell-based; settings: Aspergillus fumigatus, 390M
A. terreus 497 [20] = experiment: Sensititre YeastOne antifungal susceptibility test; assay type: cell-based
Candida albicans 1402 [21] = experiment: Sensititre YeastOne antifungal susceptibility test; assay type: cell-based; settings: Candida albicans, 1402
C. glabrata 1402 [22] = experiment: Sensititre YeastOne antifungal susceptibility test; assay type: cell-based; settings: Nakaseomyces glabratus, 1402
C. krusei 1447 [23] = experiment: Sensititre YeastOne antifungal susceptibility test; assay type: cell-based
C. tropicalis 156 [24] = experiment: Sensititre YeastOne antifungal susceptibility test; assay type: cell-based; settings: Candida tropicalis
C. parapsilosis 571 [25] = experiment: Sensititre YeastOne antifungal susceptibility test; assay type: cell-based; settings: Lodderomyces parapsilosis, 571
[26] = system: Cryptococcus neoformans 297; experiment: Sensititre YeastOne antifungal susceptibility test; assay type: cell-based
Cr. laurentii 325m = experiment: Sensititre YeastOne antifungal susceptibility test; assay type: cell-based; settings: Papiliotrema laurentii
[27] = system: clinical yeast isolates (Candida, Cryptococcus); experiment: Broth microdilution MIC/MFC, pathogenic multidrug yeast strains; assay type: cell-based; settings: whole panel of Candida isolates
[28] = system: B16 (mouse melanoma cell line); experiment: MTT cytotoxicity assay; assay type: cell-based; settings: Mus musculus, 72 h, three experiments, each in triplicate
Method: (§1) Experiments for determining the cytotoxic activity of the compound in MTT assays were performed as previously described. The following tumor cell lines were used for this study: HCT-116 (colon cancer cell line), B16 (mouse melanoma cell line), K-562 (leukemia cell line), MDA-MB-231 (breast cancer line), and MCF-7 (breast cancer cell). Human postnatal fibroblasts were used as a normal cell line, and doxorubicin was used as a positive control. The cell lines were cultured in Dulbecco modified Eagle’s medium supplemented with 5% fetal calf serum, 2 mM Lglutamine, 100 U/mL penicillin, and […] streptomycin at 37 °C, 5% CO2 in a humidified atmosphere. Experiments were carried out on cells in the logarithmic phase of growth. The peptide was dissolved in DMSO as a 10 mM stock solution, followed by serial dilutions in water immediately before the experiment. Briefly, cells (5 × 10^3 in […] of culture medium) were plated in a 96-well plate and treated with 0.1% DMSO (blank control) or with […] of the peptide (0.10‒50 μM; each concentration in duplicate) for 72 h. After incubation with peptide, […] of aqueous MTT solution (3-(4,5-dimethylthiazol-2-yl)-2,5-diphenyltetrazolium bromide, 5 mg/mL) were added into each well for 2‒3 h. Formazan was dissolved in DMSO, and the absorbance at 570 nm was measured. The cytotoxicity at a given EmiA concentration was calculated as the percentage of absorbance in wells with peptide-treated cells compared to that of blank control cells (100%). The IC50 (50% growth inhibitory concentration) was defined as the concentration of EmiA that inhibited MTT conversion by 50%. All the experiments were repeated three times, each time in triplicate. EmiA was tested at a range of concentrations, 0.1‒10 μM.

[29] = system: HCT-116 (colon cancer cell line); experiment: MTT cytotoxicity assay; assay type: cell-based; settings: Homo sapiens, 72 h, three experiments, each in triplicate
Method: as §1

[30] = system: HPF (human postnatal fibroblasts, normal cell line); experiment: MTT cytotoxicity assay; assay type: cell-based; settings: Homo sapiens, Fibroblast; HPF normal fibroblasts; MTT, 72 h; three experiments, each in triplicate
Method: as §1

Structure (SMILES): C[C@@H]1[C@H](O)[C@@H](C)/C=C/C=C/C=C/C=C/C=C/C=C/C=C/[C@H](O[C@@H]2O[C@H](C)[C@@H](O)[C@H](N)[C@@H]2O)C[C@@H]2O[C@](O)(C[C@@H](O)C[C@@H](O)[C@H](O)CC[C@@H](O)C[C@@H](O)CC(=O)O[C@H]1C)C[C@H](O)[C@H]2C(=O)O [AmpB, Amphotericin B]
- zone of inhibition at 40 µg/disc [1]: 0 mm
- zone of inhibition at 40 µg/disc (A. niger 1133 m [2]): 10 ± 0.14 mm
- zone of inhibition at 40 µg/disc (A. fumigatus VKM F-37 [3]): 12 ± 0.23 mm
- zone of inhibition at 40 µg/disc (A. fumigatus 390 m [4]): 15 ± 0.51 mm
- zone of inhibition at 40 µg/disc (A. terreus 3 K [5]): 0 mm
- zone of inhibition at 40 µg/disc (A. terreus 497 [6]): 0 mm
- inhibition zones [7]: 10–12 mm
- inhibition zones [8]: 15–17 mm
- MIC (A. niger ATCC 16404): 1 µg/mL (≈ 1.08 µM)
- MIC (A. niger 1133 m [9]): 1 µg/mL (≈ 1.08 µM)
- MIC (A. terreus 3 K [10]): > 64 µg/mL
- MIC (A. terreus 497 [11]): > 64 µg/mL
- MIC (A. fumigatus VKM F-37 [12]): 1 µg/mL (≈ 1.08 µM)
- MIC (A. fumigatus 390 m [13]): 1 µg/mL (≈ 1.08 µM)
- MFC (Candida albicans 1402 [14]; Candida albicans 1402, lowest concentration causing 95% death, plated on PDA agar, read-out: MFC): 0.5 µg/mL (≈ 0.541 µM)
- MIC (Candida albicans 1402 [14]): 0.5 µg/mL (≈ 0.541 µM)
- MIC (C. glabrata 1402 [15]): 1 µg/mL (≈ 1.08 µM)
- MFC (C. glabrata 1402 [15]; Nakaseomyces glabratus, C. glabrata 1402, lowest concentration causing 95% death, read-out: MFC): 1 µg/mL (≈ 1.08 µM)
- MIC (C. krusei 1447 [16]; Pichia kudriavzevii, 1447, 24 h, pH 7): 2 µg/mL (≈ 2.16 µM)
- MFC (C. krusei 1447 [16]; Pichia kudriavzevii, C. krusei 1447, lowest concentration causing 95% death, read-out: MFC): 4 µg/mL (≈ 4.33 µM)
- MIC (C. tropicalis 156 [17]; Candida tropicalis, 156, 24 h, pH 7): 0.5 µg/mL (≈ 0.541 µM)
- MFC (C. tropicalis 156 [17]; Candida tropicalis, C. tropicalis 156, lowest concentration causing 95% death, read-out: MFC): 1 µg/mL (≈ 1.08 µM)
- MIC (C. parapsilosis 571 [18]): 1 µg/mL (≈ 1.08 µM)
- MFC (C. parapsilosis 571 [18]; Lodderomyces parapsilosis, C. parapsilosis 571, lowest concentration causing 95% death, read-out: MFC): 1 µg/mL (≈ 1.08 µM)
- MFC ([19]; Cryptococcus neoformans 297, lowest concentration causing 95% death, read-out: MFC): 1 µg/mL (≈ 1.08 µM)
- MIC ([19]; Cryptococcus neoformans, 297, 24 h, pH 7): 0.5 µg/mL (≈ 0.541 µM)
- MIC (C. laurentii 325m; 325M, pH 7): 0.25 µg/mL (≈ 0.271 µM)
- MFC (C. laurentii 325m; C. laurentii 325m, lowest concentration causing 95% death, read-out: MFC): 0.5 µg/mL (≈ 0.541 µM)
- MIC (Aspergillus niger 1133m): 1 µg/mL (≈ 1.08 µM)
- MIC (A. fumigatus 390m): 1 µg/mL (≈ 1.08 µM)
- MIC (class symbol) (A. terreus 497 [20]; Sensititre YeastOne, A. terreus 497): R
- MIC (Candida albicans 1402 [21]): 0.5 µg/mL (≈ 0.541 µM)
- MIC (C. glabrata 1402 [22]): 1 µg/mL (≈ 1.08 µM)
- MIC (C. krusei 1447 [23]; Pichia kudriavzevii, 1447): 2 µg/mL (≈ 2.16 µM)
- MIC (C. tropicalis 156 [24]; 156): 0.5 µg/mL (≈ 0.541 µM)
- MIC (C. parapsilosis 571 [25]): 1 µg/mL (≈ 1.08 µM)
- MIC ([26]; Cryptococcus neoformans, 297): 1 µg/mL (≈ 1.08 µM)
- MIC (Cr. laurentii 325m; 325M): 0.5 µg/mL (≈ 0.541 µM)

Structure (SMILES): OC(Cn1cncn1)(Cn1cncn1)c1ccc(F)cc1F [FZ, Fluconazole]
- MIC (Candida albicans 1402 [14]): 64 µg/mL (≈ 209 µM)
- MIC (C. glabrata 1402 [15]): 128 µg/mL (≈ 418 µM)
- MIC (class symbol) (C. krusei 1447 [16]; C. krusei 1447, symbol R defined in Table S1): R
- MIC (C. tropicalis 156 [17]; Candida tropicalis, C. tropicalis 156 clinical isolate, RPMI 1640 pH 7.0, 35 °C, 24 h, read-out: MIC): 64 µg/mL (≈ 209 µM)
- MIC (C. parapsilosis 571 [18]): 128 µg/mL (≈ 418 µM)
- MIC ([19]; Cryptococcus neoformans 297 clinical isolate, RPMI 1640 pH 7.0, 35 °C, 24 h, read-out: MIC): 16 µg/mL (≈ 52.2 µM)
- MIC (C. laurentii 325m; C. laurentii 325m clinical isolate, RPMI 1640 pH 7.0, 35 °C, read-out: MIC): 32 µg/mL (≈ 104 µM)
- antifungal activity (in words) [27]: little or no activity
- MIC (Aspergillus niger 1133m): > 256 µg/mL
- MIC (A. fumigatus 390m): > 256 µg/mL
- MIC (A. terreus 497 [20]; Aspergillus terreus, 497): > 256 µg/mL
- MIC (Candida albicans 1402 [21]): 256 µg/mL (≈ 836 µM)
- MIC (C. glabrata 1402 [22]): > 256 µg/mL
- MIC (class symbol) (C. krusei 1447 [23]; Sensititre YeastOne, C. krusei 1447): R
- MIC (C. tropicalis 156 [24]; Sensititre YeastOne, C. tropicalis 156 clinical isolate, read-out: MIC): 64 µg/mL (≈ 209 µM)
- MIC (C. parapsilosis 571 [25]): 128 µg/mL (≈ 418 µM)
- MIC ([26]; Sensititre YeastOne, Cryptococcus neoformans 297 clinical isolate, read-out: MIC): 16 µg/mL (≈ 52.2 µM)
- MIC (Cr. laurentii 325m; Sensititre YeastOne, Cr. laurentii 325m clinical isolate, read-out: MIC): 32 µg/mL (≈ 104 µM)

Structure (SMILES): COc1cccc2c1C(=O)c1c(O)c3c(c(O)c1C2=O)C[C@@](O)(C(=O)CO)C[C@@H]3O[C@H]1C[C@H](N)[C@H](O)[C@H](C)O1 [Doxorubicin]
- IC50 [28]: 600 ± 70 nM
- IC50 [29]: 200 ± 30 nM
- IC50 [30]: 200 ± 30 nM
